From US7169756B2, “Streptogramin antibiotics” (priority 2005, dated 2007)
In brackets after ≈: the same amount, converted by molar mass. Where two headings read alike, the source gives them in different places. Numbered stars: 1 amine (or outer) side, 2 acyl side, 3 side chain; on linkers, the order of the positions; unused ones are H or OH. Bridge positions count the residues as written; N and C are the ends. Square brackets hold non-standard residues; d marks the D form. Peptide text beside a SMILES is read from it. * marks the point of attachment. X1 = O=C1C[C@@H](C(=O)[*:2])N([*:1])C[C@H]1CS[C@@H]1CN2CCC1CC2; NMePhe(4-NMe2) = CN[C@@H](Cc1ccc(N(C)C)cc1)C(=O)O; Picolinoyl(3-OH) = O=C(c1ncccc1O)*; Phg = N[C@H](C(=O)O)c1ccccc1; Orn = NCCC[C@H](N)C(=O)O; dAbu = CC[C@@H](N)C(=O)O; Dap = NC[C@H](N)C(=O)O

Legend:
[1] = tested on: Escherichia coli BAS901; test: disk assay, zone of growth inhibition; assay type: cell-based; details: Escherichia coli BAS901, hyperpermeable, 16 hr at 37° C.
Procedure: Partially purified material from these reactions was used to test their antibiotic properties in disk diffusion susceptibility assays using E. coli BAS901.
(§1) The antibiotic activity of the peptides synthesized in this study was initially assayed using a disk assay where samples were applied to sterile paper disks placed on a fresh lawn of bacterial culture on appropriate agar plates as required by the organism. These were then incubated for 16 hr at 37° C. and the zone of growth inhibition surrounding the disks recorded. For quantitative assessment of antibiotic activity in liquid culture, the minimal inhibitory concentration (MIC) of peptides was determined by serial dilution studies. The peptides and standard antibiotics were dissolved in DMSO and the final concentration of DMSO in the liquid cultures was 5%. Both S. aureus RN4220 and E. coli BAS901 were able to grow efficiently at this level of DMSO.
(§2) Crude material from the initial synthesis reactions was used to test the potential of the analogues as antibiotics in susceptibility assays where a solution of the compound was placed on a paper disk on a lawn of bacteria. As described above, E. coli BAS901 is deficient in the Imp/OstA protein, an outer membrane protein, involved in cell envelope biogenesis (1, 5). […] These were then incubated for 16 hrs at 37° C. and the zone of growth inhibition surrounding the disks recorded.

[2] = tested on: E. coli BAS901/pUC19; test: disk assay, zone of growth inhibition; assay type: cell-based, Escherichia coli
Source text: A hyperpermeable E. coli strain, E. coli BAS901, harboring a plasmid constitutively expressing Vgb was created for in vivo studies. The plasmids pVGB, described previously in [14], and […] were digested with Xbal and BamHI, to yield an approximately 1 kb fragment containing a ribosomal binding site upstream of vgb, and linearized pUC19 backbone, respectively. The vgb fragment was then subcloned into the linearized pUC19 backbone downstream of pLac yielding pUC19-VGB. Both pUC19-VGB and pUC19 were transformed E. coli BAS901.
as §1
(§3) Crude material from the initial synthesis reactions was used to test the potential of the analogues as antibiotics in susceptibility assays where a solution of the compound was placed on a paper disk on a lawn of bacteria. As described above, E. coli BAS901 is deficient in the Imp/OstA protein, an outer membrane protein, involved in cell envelope biogenesis (1, 5). […] The antibiotic activity of the peptides synthesized in this study was initially assayed using a disk assay where samples were applied to sterile paper disks placed on a fresh lawn of bacterial culture on Tryptic Soya, Luria Broth, or Brain Heart Infusion Agar plates. These were then incubated for 16 hrs at 37° C. and the zone of growth inhibition surrounding the disks recorded.

[3] = tested on: Bacillus subtilis 1A752; test: disk assay, zone of growth inhibition; assay type: cell-based
Procedure: as §1, §3

[4] = tested on: Enterococcus faecium CP54-32; test: disk assay, zone of growth inhibition; assay type: cell-based
Procedure: as §1, §3

[5] = tested on: Micrococcus luteus; test: disk assay, zone of growth inhibition; assay type: cell-based
Procedure: as §1, §3

[6] = tested on: B. subtilis L5706; test: disk assay, zone of growth inhibition; assay type: cell-based, Bacillus subtilis
Procedure: as §1, §2

[7] = tested on: B. subtilis W23; test: disk assay, zone of growth inhibition; assay type: cell-based, Bacillus subtilis
Procedure: as §1, §2

[8] = tested on: Enterococcus faecalis (ATCC 29212); assay type: cell-based
Procedure: as §1, §3

[9] = tested on: Staphylococcus epidermidis (ATCC 12228); assay type: cell-based
Procedure: as §1, §3

[10] = tested on: Staphylococcus epidermidis (ATCC 14990); assay type: cell-based
Procedure: as §1, §3

[11] = tested on: Streptococcus pneumoniae (ATCC 6305); assay type: cell-based
Procedure: as §1, §3

[12] = tested on: E. coli BAS901/pUC19ermB; test: microbe, parasite or virus in culture; assay type: cell-based, Escherichia coli
Source text: In order to test the effects of 5 against E. coli BAS901 harboring ermB, the 23S rRNA methyltransferase, the plasmid pJIM2246 ΩermB [13] was purified from Staphylococcus aureus RN4220/pJIM2246 ΩermB. ErmB was subsequently amplified from pJIM2246 ΩermB via polymerase chain reaction using primers 5′-[…] AND 5′-[…] (engineered restriction enzyme sites are underlined). The amplified product was subcloned into pCR4Blunt-TOPO (Invitrogen) and transformed into E. coli XL10 GOLD, resulting in ermB being positioned in frame with the lacZ gene. This construct, designated pTOPOerm, was then used as template in the reamplification of ermB using a new forward primer containing a strong ribosomal binding consensus sequence (shown in italics); 5-[…]. […]
as §1, with “The peptides and standard antibiotics were dissolved in DMSO and the final concentration of DMSO in the liquid cultures was 5%. Both S. aureus RN4220 and E. coli BAS901 were able to grow efficiently at this level of DMSO.” left out

[13] = tested on: in vitro translation; test: In Vitro Translation Assay; assay type: biochemical; details: FIG. 6
Procedure: Inhibition of translation was monitored using an ActivePro In Vitro Translation Kit from Ambion. Briefly, a reaction mixture was prepared as per the manufacturer's instructions that contained all of the constituents necessary (including [^35S]-methionine) except for DNA template. These mixtures were then preincubated for 15 min at room temperature in the presence or absence of various antibiotics. Subsequent to the preincubation period, a control template containing a chloramphenicol acetyltransferase gene under control of a bacteriophage T7 promoter was added and the reaction carried out for 1 hr at 37° C. Due to the insoluble nature of some of the antibiotics, the final DMSO concentration in each reaction including controls was maintained at 5% (v/v). Aliquots were taken after 1 hr, and separated on SDS polyacrylamide gels. The efficiency of translation of ^35S-labeled […] was analyzed and quantified using a Typhoon 9200 variable mode imager (Image-Quant 5.2 software).

[14] = tested on: B. subtilis 1A752; test: checker-board synergy test with dalfopristin; assay type: cell-based, Bacillus subtilis; details: microtiter plates, checker-board technique
Source text: (§4) Quinupristin and dalfopristin act in a synergistic manner.

[15] = tested on: E. coli BAS901; test: checker-board synergy test with dalfopristin; assay type: cell-based, Escherichia coli; details: microtiter plates, checker-board technique
Source text: as §4

[16] = tested on: B. subtilis 1A752; test: bacteriostatic or bactericidal action; assay type: cell-based, Bacillus subtilis
[17] = tested on: Bacillus subtilis; test: growth inhibition, text summary of disk assay; assay type: cell-based; details: strain not given
Procedure: as §1, §3

[18] = tested on: Enterococcus faecalis; test: growth inhibition, text summary of disk assay; assay type: cell-based; details: strain not given
Procedure: as §1, §3

[19] = tested on: Staphylococcus epidermidis; test: growth inhibition, text summary of disk assay; assay type: cell-based; details: strain not given
Procedure: as §1, §3

[20] = tested on: Streptococcus pneumoniae; test: growth inhibition, text summary of disk assay; assay type: cell-based; details: strain not given
Procedure: as §1, §3

## CC[C@H]1NC(=O)[C@@H](NC(=O)c2ncccc2O)[C@@H](C)OC(=O)[C@H](c2ccccc2)NC(=O)[C@@H]2CC(=O)[C@H](CS[C@@H]3CN4CCC3CC4)CN2C(=O)[C@H](Cc2ccc(N(C)C)cc2)N(C)C(=O)[C@@H]2CCCN2C1=O [Quinupristin, quinupristin, reference compound] ({Picolinoyl(3-OH)}-T[dAbu]P[NMePhe(4-NMe2)][X1][Phg]; ester 1-C)
[1]
  Zone of Inhibition: 2.2 cm
[2]
  Zone of Inhibition: 2.2 cm
[2]; listed as quinupristin
  Zone of Inhibition: exhibit a zone of inhibition
[3]
  Zone of Inhibition: 1.8 cm
[4]
  Zone of Inhibition: 1.8 cm
[5]
  Zone of Inhibition: 2.7 cm
[6]
  Zone of Inhibition: 2.1 cm
[7]
  Zone of Inhibition: 2.1 cm
[8]; Enterococcus faecalis (ATCC 29212), disk assay
  Zone of Inhibition: 1.8 cm
[9]; Staphylococcus epidermidis (ATCC 12228), disk assay
  Zone of Inhibition: 3.4 cm
[10]; Staphylococcus epidermidis (ATCC 14990), disk assay
  Zone of Inhibition: 3.0 cm
[11]; Streptococcus pneumoniae (ATCC 6305), disk assay
  Zone of Inhibition: 2.1 cm
[12]; Escherichia coli, BAS901/PUC19ERMB
  MIC: 16 µg/mL (≈ 15.7 µM)
[13]; 15 min preincubation, 1 hr at 37° C., 5% DMSO, concentration not given
  inhibition of in vitro translation: did block

## CC(C)C[C@@H]1NC(=O)[C@H](CCCN)NC(=O)[C@H]([C@@H](C)O)NC(=O)[C@@H](NC(=O)c2ncccc2O)CNC(=O)[C@H](Cc2ccccc2)NC(=O)[C@@H]2CCCN2C(=O)[C@@H](Cc2ccccc2)NC1=O [Compound 5] ({Picolinoyl(3-OH)}-[Dap]T[Orn]L[dF]PF; lactam 1-C)
[8]; ATCC 29212, 16 h
  Zone of Inhibition: 0.75 cm
[9]; ATCC 12228, 16 h
  Zone of Inhibition: 0.85 cm
[10]; ATCC 14990, 16 h
  Zone of Inhibition: 0.75 cm
[11]; ATCC 6305, 16 h
  Zone of Inhibition: 0.8 cm
[12]; E. coli BAS901/pUC19ermB (Erm methyltransferase)
  MIC: 32 µg/mL (≈ 34.5 µM)
[14]
  synergy with dalfopristin: additive, not synergistic
[15]
  synergy with dalfopristin: additive, not synergistic
[16]
  bacteriostatic or bactericidal: bacteriostatic and not bactericidal
[13]; at 250 μg/ml
  inhibition of in vitro translation: did not
[17]
  growth inhibition activity: active
[18]
  growth inhibition activity: active
[19]
  growth inhibition activity: active
[20]
  growth inhibition activity: active
